Measured values reported in US9120812B2, “Pyrimidooxazocine derivatives as mTOR-inhibitors” (SANOFI, priority 2012, dated 2015).

Key:
[1] = target: mTOR (human recombinant aa mTOR 1360-2549) (Homo sapiens (Human), UniProt P42345); test: mTOR enzymatic test by TR-FRET (phosphorylation of GFP-4EBP1); assay type: biochemical
Outline: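 TR-FRET detection of GFP-4EBP1 phosphorylation by a terbium-labelled anti-phospho-Thr46 antibody. Kinase reaction ran 30 min at room temperature, was quenched with EDTA (10 mM final) plus Tb-antibody (2 nM final) and left 60 min. Emission at 520 and 490 nm after 340 nm excitation, reported as the 520/490 ratio.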

U87MG tumour cells = test: Test of in vitro proliferation of U87MG tumour cells; assay type: cell-based; details: Homo sapiens, U-87 MG, 72 h, U87MG cells, 72 hours; read-out: U87 Cell Proliferation IC50
Procedure: Model 4: Test of in vitro Proliferation of U87MG Tumour Cells.
The cell growth is determined with the reagent CellTiter 96 AQueous One Solution Cell Proliferation Assay from Promega (Cat. No. G3581).

PI3Kα (p110α/p85α) = PI3Kα (p110α/p85α) (Homo sapiens (Human), UniProt P42336); test: PI3Kα enzymatic test by measuring the consumption of ATP; assay type: biochemical
PI3Kα (p110α/p85α), sequence (P42336 whole entry): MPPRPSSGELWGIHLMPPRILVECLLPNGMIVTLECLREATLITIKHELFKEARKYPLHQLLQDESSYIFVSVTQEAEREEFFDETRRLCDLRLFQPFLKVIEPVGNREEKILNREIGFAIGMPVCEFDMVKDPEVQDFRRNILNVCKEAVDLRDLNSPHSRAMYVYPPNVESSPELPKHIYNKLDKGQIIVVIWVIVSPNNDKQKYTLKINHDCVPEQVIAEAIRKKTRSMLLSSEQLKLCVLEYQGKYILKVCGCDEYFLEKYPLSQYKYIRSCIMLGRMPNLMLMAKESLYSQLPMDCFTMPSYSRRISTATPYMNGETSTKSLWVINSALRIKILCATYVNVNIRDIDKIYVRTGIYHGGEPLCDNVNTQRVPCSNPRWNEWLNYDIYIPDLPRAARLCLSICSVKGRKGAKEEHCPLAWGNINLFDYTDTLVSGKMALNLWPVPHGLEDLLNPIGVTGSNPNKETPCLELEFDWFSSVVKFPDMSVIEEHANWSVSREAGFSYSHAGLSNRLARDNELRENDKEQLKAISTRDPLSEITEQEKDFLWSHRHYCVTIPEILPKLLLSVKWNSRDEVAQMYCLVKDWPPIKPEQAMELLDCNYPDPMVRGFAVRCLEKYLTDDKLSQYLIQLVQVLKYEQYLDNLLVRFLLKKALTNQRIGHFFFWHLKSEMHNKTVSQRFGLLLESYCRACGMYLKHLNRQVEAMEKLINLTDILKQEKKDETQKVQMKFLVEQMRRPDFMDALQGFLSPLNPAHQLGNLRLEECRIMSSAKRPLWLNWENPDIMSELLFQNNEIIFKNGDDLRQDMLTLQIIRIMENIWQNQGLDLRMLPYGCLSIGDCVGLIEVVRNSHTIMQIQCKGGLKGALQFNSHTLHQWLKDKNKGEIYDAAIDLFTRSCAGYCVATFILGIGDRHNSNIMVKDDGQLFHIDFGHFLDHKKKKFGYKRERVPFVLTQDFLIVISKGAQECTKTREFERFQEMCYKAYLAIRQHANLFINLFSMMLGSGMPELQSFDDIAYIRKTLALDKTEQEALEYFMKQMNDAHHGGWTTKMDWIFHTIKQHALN
PI3Kα (p110α/p85α), sequence (P27986 whole entry partner): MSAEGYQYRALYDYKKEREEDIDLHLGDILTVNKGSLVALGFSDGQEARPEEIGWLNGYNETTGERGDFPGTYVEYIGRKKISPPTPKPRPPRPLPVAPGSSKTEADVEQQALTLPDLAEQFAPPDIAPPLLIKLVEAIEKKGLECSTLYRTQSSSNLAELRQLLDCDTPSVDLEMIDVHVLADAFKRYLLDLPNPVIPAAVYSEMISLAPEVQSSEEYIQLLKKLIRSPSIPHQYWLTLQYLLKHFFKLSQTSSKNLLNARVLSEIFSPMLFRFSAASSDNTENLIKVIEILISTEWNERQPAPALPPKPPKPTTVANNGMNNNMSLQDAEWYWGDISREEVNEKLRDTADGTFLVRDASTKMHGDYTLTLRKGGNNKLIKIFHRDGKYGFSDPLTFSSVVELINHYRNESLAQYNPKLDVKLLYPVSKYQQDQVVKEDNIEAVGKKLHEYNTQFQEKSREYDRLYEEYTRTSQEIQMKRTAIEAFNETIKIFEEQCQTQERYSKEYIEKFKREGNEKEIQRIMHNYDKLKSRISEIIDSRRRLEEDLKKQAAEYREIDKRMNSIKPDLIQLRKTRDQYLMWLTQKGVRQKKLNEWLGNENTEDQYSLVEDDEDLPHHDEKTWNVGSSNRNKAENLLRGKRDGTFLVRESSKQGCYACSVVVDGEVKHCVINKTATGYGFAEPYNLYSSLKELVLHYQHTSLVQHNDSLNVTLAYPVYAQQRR
Outline: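 p110α/p85α (1.7 μg/ml) with 50 μM PIP2 and 2 μM ATP in pH 7.5 Tris buffer with EGTA, MgCl2, Chaps, DTT; reaction 90 min. Remaining ATP measured by luciferin/luciferase luminescence; IC50 from threefold serial dilutions spanning at least 10 000-fold.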

Akt-pS473 in U87MG cells = details: Homo sapiens, U-87 MG; for IC50: read-out: U87 Akt-pS473 % Inhibition or IC50, nM (IC50), U87MG cells
Procedure: Model 3: Cellular Test of Phosphorylation of the Epitope S473 of the Akt Protein on the U87MG Line Via an ELISA Test
An electrochemiluminescence signal is generated by a ruthenium-labelled anti-rabbit antibody.
After culturing for 16-20 hours (the cells are at 100% of confluence) at 37° C. under 5% CO2, 1 μl of the chemical compounds in 100% DMSO (1% DMSO final concentration on the cells) is added. The cells are incubated with the compounds for 3 hours at 37° C. under 5% CO2.
The free sites are blocked with 150 μl/well of a buffer of 50 mM Tris pH 7.5, 0.15 M NaCl, 0.02% Tween 20, 3% BSA with stirring at 450 rpm for 1 hour at room temperature, followed by a step of washing with 3×300 μl of a buffer of 50 mM Tris pH 7.5, 0.15 M NaCl, 0.02% Tween 20.
15 μl of cell lysate are mixed with 15 μl of a 50 mM buffer of Tris pH 7.5, 0.15 M NaCl, 0.02% Tween 20, 1% BSA in a precoated ELISA plate (see above), and incubated for 1 hour at room temperature with stirring, followed by a step of washing with 3×300 μl of a buffer of 50 mM Tris pH 7.5, 0.15 M NaCl, 0.02% Tween 20. The pS473 epitope of Akt is detected with a rabbit polyclonal antibody (Cell Signaling, SC9271), diluted 100-fold in 50 mM Tris pH 7.5, 0.15 M NaCl, 0.02% Tween 20, 1% BSA, 25 μl/well (incubation for 1 hour at room temperature with stirring at 450 rpm).
After washing (see above), revelation is performed with a ruthenium-labelled anti-rabbit antibody (MSD R32AB1), diluted 3000-fold in a 50 mM buffer of Tris pH 7.5, 0.15 M NaCl, 0.02% Tween 20, 1% BSA, 25 μl/well, followed by incubation for 1 hour at room temperature with stirring at 450 rpm, and the plates are covered with aluminium.
After a further washing step, the plates are emptied and 150 μl of MSD Read Buffer T diluted fourfold with water are added. The electrochemiluminescence is measured on the MSD Sector Imager 6000.

mTOR (human recombinant aa mTOR 1360-2549), sequence (P42345 1360-2549): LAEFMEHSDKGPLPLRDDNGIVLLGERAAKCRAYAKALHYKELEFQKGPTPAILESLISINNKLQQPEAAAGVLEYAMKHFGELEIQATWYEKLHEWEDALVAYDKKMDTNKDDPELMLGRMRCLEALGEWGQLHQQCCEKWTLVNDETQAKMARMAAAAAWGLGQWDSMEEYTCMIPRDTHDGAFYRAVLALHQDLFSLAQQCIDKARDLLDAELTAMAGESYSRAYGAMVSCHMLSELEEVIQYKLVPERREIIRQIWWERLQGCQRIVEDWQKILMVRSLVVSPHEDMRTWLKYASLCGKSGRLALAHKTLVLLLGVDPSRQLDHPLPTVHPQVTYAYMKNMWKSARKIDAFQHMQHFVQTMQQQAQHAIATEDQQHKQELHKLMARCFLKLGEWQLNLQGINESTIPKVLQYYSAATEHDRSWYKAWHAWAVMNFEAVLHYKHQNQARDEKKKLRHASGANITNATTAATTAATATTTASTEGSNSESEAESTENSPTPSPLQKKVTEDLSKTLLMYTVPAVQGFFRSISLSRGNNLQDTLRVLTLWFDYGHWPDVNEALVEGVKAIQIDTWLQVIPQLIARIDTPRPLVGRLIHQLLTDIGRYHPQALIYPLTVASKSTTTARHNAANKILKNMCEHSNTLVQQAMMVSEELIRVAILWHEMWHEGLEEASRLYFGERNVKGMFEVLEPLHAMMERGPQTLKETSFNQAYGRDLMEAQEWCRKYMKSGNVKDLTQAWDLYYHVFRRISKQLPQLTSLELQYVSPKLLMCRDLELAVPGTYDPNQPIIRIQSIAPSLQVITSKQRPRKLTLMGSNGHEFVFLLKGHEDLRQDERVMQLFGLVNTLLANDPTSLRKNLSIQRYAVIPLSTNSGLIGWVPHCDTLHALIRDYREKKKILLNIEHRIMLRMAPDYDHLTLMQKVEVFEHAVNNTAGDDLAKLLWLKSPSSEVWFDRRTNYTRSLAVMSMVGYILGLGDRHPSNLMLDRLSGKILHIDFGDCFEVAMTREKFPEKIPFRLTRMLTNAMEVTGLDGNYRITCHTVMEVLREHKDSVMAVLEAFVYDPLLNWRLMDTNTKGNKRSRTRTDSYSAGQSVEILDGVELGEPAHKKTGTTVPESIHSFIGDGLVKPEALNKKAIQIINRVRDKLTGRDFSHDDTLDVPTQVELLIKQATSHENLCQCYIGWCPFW

Structure (SMILES) | IC50 [1] | IC50 (U87MG tumour cells) | PI3Ka IC50 (PI3Kα (p110α/p85α)) | IC50 (Akt-pS473 in U87MG cells) | inhibition at 3 µM (Akt-pS473 in U87MG cells; read-out: U87 Akt-pS473 % Inhibition)
CCN1CC(C)(C)Oc2nc(N3CCOC[C@@H]3C)nc(-c3ccc(NC(=O)OCC(C)(C)O)cc3)c2C1=O [Example 214, {4-[6-Ethyl-8,8-dimethyl-2-((S)-3-methylmorpholin-4-yl)-5-oxo-5,6,7,8-tetrahydro-9-oxa-1,3,6-triazabenzocyclohepten-4-yl]phenyl}carbamic acid 2-hydroxy-2-methylpropyl ester] | 2450 nM | > 10000 nM | >10000 nM | > 1000 nM | 
CCN1CC(C)(C)Oc2nc(N3CCOC[C@@H]3C)nc(-c3ccc(NC(=O)Nc4ccc(C(=O)N(C)CCN(C)C)cc4)cc3)c2C1=O [Example 215, N-(2-Dimethylamino-ethyl)-4-(3-{4-[6-ethyl-8,8-dimethyl-2-((S)-3-methylmorpholin-4-yl)-5-oxo-5,6,7,8-tetrahydro-9-oxa-1,3,6-triazabenzocyclohepten-4-yl]phenyl}ureido)-N-methylbenzamide] | 48 nM | 32 nM | 37 nM | 33 nM | 
CCNC(=O)Nc1ccc(-c2nc(N3CC4CCC(C3)O4)nc3c2C(=O)N(CCOC)CC(C)(C)O3)cc1 [Example 217, 1-Ethyl-3-{4-[6-(2-methoxyethyl)-8,8-dimethyl-2-(8-oxa-3-azabicyclo[3.2.1]oct-3-yl)-5-oxo-5,6,7,8-tetrahydro-9-oxa-1,3,6-triazabenzocyclohepten-4-yl]phenyl}urea] | 59 nM | 1760 nM | >10000 nM |  | 80%
CCN1CC(C)(C)Oc2nc(N3CCOC[C@@H]3C)nc(-c3ccc(NC(=O)Nc4ccc(N5CCN(C)CC5)cn4)cc3)c2C1=O [Example 218, 1-{4-[6-Ethyl-8,8-dimethyl-2-((S)-3-methylmorpholin-4-yl)-5-oxo-5,6,7,8-tetrahydro-9-oxa-1,3,6-triazabenzocyclohepten-4-yl]phenyl}-3-[5-(4-methylpiperazin-1-yl)pyridin-2-yl]urea] | 58 nM | 211 nM | 1060 nM | 17 nM | 
CCN1CC(C)(C)Oc2nc(N3CCOC[C@@H]3C)nc(-c3ccc(NC(=O)Nc4ccc(C(=O)NCC(C)(C)O)cc4)cc3)c2C1=O [Example 219, 4-(3-{4-[6-Ethyl-8,8-dimethyl-2-((S)-3-methylmorpholin-4-yl)-5-oxo-5,6,7,8-tetrahydro-9-oxa-1,3,6-triazabenzocyclohepten-4-yl]phenyl}ureido)-N-(2-hydroxy-2-methylpropyl)benzamide] | 38 nM | 436 nM | 98 nM | 28 nM | 
CCN1CC(C)(C)Oc2nc(N3CCOC[C@@H]3C)nc(-c3ccc(NC(=O)Nc4ccccn4)cc3)c2C1=O [Example 221, 1-{4-[6-Ethyl-8,8-dimethyl-2-((S)-3-methylmorpholin-4-yl)-5-oxo-5,6,7,8-tetrahydro-9-oxa-1,3,6-triazabenzocyclohepten-4-yl]phenyl}-3-pyridin-2-ylurea] | 13 nM | 137 nM | 372 nM | 11 nM | 
CCN1CC(C)(C)Oc2nc(N3CC4CCC(C3)O4)nc(-c3ccc(NC(=O)OCCO)c(F)c3)c2C1=O [Example 222, {4-[6-Ethyl-8,8-dimethyl-2-(8-oxa-3-azabicyclo[3.2.1]oct-3-yl)-5-oxo-5,6,7,8-tetrahydro-9-oxa-1,3,6-triazabenzocyclohepten-4-yl]-2-fluorophenyl}carbamic acid 2-hydroxyethyl ester] | 123 nM | 1680 nM | >10000 nM | 213 nM | 
CCN1CC(C)(C)Oc2nc(N3CC4CCC(C3)O4)nc(-c3ccc(NC(=O)Nc4cccnc4)c(F)c3)c2C1=O [Example 223, 1-{4-[6-Ethyl-8,8-dimethyl-2-(8-oxa-3-azabicyclo[3.2.1]oct-3-yl)-5-oxo-5,6,7,8-tetrahydro-9-oxa-1,3,6-triazabenzocyclohepten-4-yl]-2-fluorophenyl}-3-pyridin-3-ylurea] | 20 nM | 61 nM | 2070 nM | 4 nM | 
CNC(=O)Nc1ccc(-c2nc(N3CCOC[C@@H]3C)nc3c2C(=O)N(CCOC)CC(C)(C)O3)cc1F [Example 225, 1-{2-Fluoro-4-[6-(2-methoxyethyl)-8,8-dimethyl-2-((S)-3-methylmorpholin-4-yl)-5-oxo-5,6,7,8-tetrahydro-9-oxa-1,3,6-triazabenzocyclohepten-4-yl]phenyl}-3-methylurea] | 36 nM | 365 nM | 1360 nM | 91 nM | 
CCN1CC(C)(C)Oc2nc(N3CCOC[C@@H]3C)nc(-c3ccc(NC(=O)Nc4ccc(N5CCOCC5)cc4)c(F)c3)c2C1=O [Example 227, 1-{4-[6-Ethyl-8,8-dimethyl-2-((S)-3-methylmorpholin-4-yl)-5-oxo-5,6,7,8-tetrahydro-9-oxa-1,3,6-triazabenzocyclohepten-4-yl]-2-fluorophenyl}-3-(4-morpholin-4-ylphenyl)urea] | 76 nM | 29 nM | 484 nM | 7 nM | 
CC[C@H]1COCCN1c1nc2c(c(-c3ccc(NC(=O)NC)c(F)c3)n1)C(=O)N(CC)CC(C)(C)O2 [Example 228, 1-{4-[6-Ethyl-2-((S)-3-ethylmorpholin-4-yl)-8,8-dimethyl-5-oxo-5,6,7,8-tetrahydro-9-oxa-1,3,6-triazabenzocyclohepten-4-yl]-2-fluorophenyl}-3-methylurea] | 70 nM | 229 nM | 6600 nM | 72 nM | 
CCN1CC(C)(C)Oc2nc(N3C4CCC3COC4)nc(-c3ccc(NC(=O)Nc4ccc(C)nc4)c(F)c3)c2C1=O [Example 229, 1-{4-[6-Ethyl-8,8-dimethyl-2-(3-oxa-8-azabicyclo[3.2.1]oct-8-yl)-5-oxo-5,6,7,8-tetrahydro-9-oxa-1,3,6-triazabenzocyclohepten-4-yl]-2-fluorophenyl}-3-(6-methylpyridin-3-yl)urea] | 43 nM | 86 nM | >10000 nM | 19 nM | 
CCN1CC(C)(C)Oc2nc(N3CC4CCC(C3)O4)nc(-c3ccc(NC(=O)Nc4ccc(C(F)(F)F)nc4)c(F)c3)c2C1=O [Example 230, 1-{4-[6-Ethyl-8,8-dimethyl-2-(8-oxa-3-azabicyclo[3.2.1]oct-3-yl)-5-oxo-5,6,7,8-tetrahydro-9-oxa-1,3,6-triazabenzocyclohepten-4-yl]-2-fluorophenyl}-3-(6-trifluoromethylpyridin-3-yl)urea] | 77 nM | 58 nM | >10000 nM | 18 nM | 
CCN1CC(C)(C)Oc2nc(N3CCOC[C@@H]3C)nc(-c3ccc(NC(=O)Nc4ccncc4)c(F)c3)c2C1=O [Example 231, 1-{4-[6-Ethyl-8,8-dimethyl-2-((S)-3-methylmorpholin-4-yl)-5-oxo-5,6,7,8-tetrahydro-9-oxa-1,3,6-triazabenzocyclohepten-4-yl]-2-fluorophenyl}-3-pyridin-4-ylurea] | 16 nM | 29 nM | 103 nM | 12 nM | 
CCN1CC(C)(C)Oc2nc(N3CCOC[C@@H]3C)nc(-c3ccc(NC(=O)Nc4cnc(N5CCOCC5)cn4)cc3)c2C1=O [Example 232, 1-{4-[6-Ethyl-8,8-dimethyl-2-((S)-3-methylmorpholin-4-yl)-5-oxo-5,6,7,8-tetrahydro-9-oxa-1,3,6-triazabenzocyclohepten-4-yl]phenyl}-3-(5-morpholin-4-ylpyrazin-2-yl)urea] | 32 nM | 95 nM | 5630 nM | 26 nM | 
CCN1CC(C)(C)Oc2nc(N3CC4CCC(C3)O4)nc(-c3ccc(NC(=O)Nc4cnc(N5CCOCC5)cn4)c(F)c3)c2C1=O [Example 233, 1-{4-[6-Ethyl-8,8-dimethyl-2-(8-oxa-3-azabicyclo[3.2.1]oct-3-yl)-5-oxo-5,6,7,8-tetrahydro-9-oxa-1,3,6-triazabenzocyclohepten-4-yl]-2-fluorophenyl}-3-(5-morpholin-4-ylpyrazin-2-yl)urea] | 68 nM | 908 nM | >10000 nM | 87 nM | 
CCN1CC(C)(C)Oc2nc(N3CC4CCC(C3)O4)nc(-c3ccc(NC(=O)Nc4cnc(N(C)C)cn4)c(F)c3)c2C1=O [Example 234, 1-(5-Dimethylaminopyrazin-2-yl)-3-{4-[6-ethyl-8,8-dimethyl-2-(8-oxa-3-azabicyclo[3.2.1]oct-3-yl)-5-oxo-5,6,7,8-tetrahydro-9-oxa-1,3,6-triazabenzocyclohepten-4-yl]-2-fluorophenyl}urea] | 67 nM | 2290 nM | >10000 nM | 118 nM | 
CCN1CC(C)(C)Oc2nc(N3CC4CCC(C3)O4)nc(-c3ccc(NC(=O)Nc4ccc(N5CCN(S(C)(=O)=O)CC5)cc4)c(F)c3)c2C1=O [Example 235, 1-{4-[6-Ethyl-8,8-dimethyl-2-(8-oxa-3-azabicyclo[3.2.1]oct-3-yl)-5-oxo-5,6,7,8-tetrahydro-9-oxa-1,3,6-triazabenzocyclohepten-4-yl]-2-fluorophenyl}-3-[4-(4-methanesulfonylpiperazin-1-yl)phenyl]urea] | 89 nM | 29 nM | >7200 nM | 10 nM | 
